Measured values as given in patent US20030220524A1, “Sulfur containing compounds” (priority 2000, published 2003).
“And” between values parts separate entries of the source, which are not always exact repeats. Equal values may be shown once. Read-outs that look alike come from different tables or passages of the source.

Experiments:
Aspergillus niger [1] = assay: Antifungal paper disk test, diameter of clear zone; format: cell-based; settings: 0.25 μg/disk; Appl'n Solvent DMSO
Aspergillus flavus [2] = assay: Antifungal paper disk test, diameter of clear zone; format: cell-based; settings: for zone of inhibition at 100 µg/disc / zone of inhibition at 25 µg/disc: Aspergillus flavus; for zone of inhibition at 100 µg/disc: read-out: Diameter (mm) of clear Zone A. flavus
Protocol: (§1) Sulfur compounds were tested for antifungal activity against pure cultures of Aspergillus niger and Aspergillus flavus supplied by Ward's Natural Science Ltd (St. Catharines, Ontario, Canada). They were maintained on Sabouraud Dextrose Agar.
(§2) For the test, 6 agar plugs (5 mm diameter) were cut from a 5-8 day old colony and homogenized in distilled, sterilized water (2 ml). A portion of this suspension (0.5 ml) was transferred aseptically to a Petri plate with Sabouraud Dextrose Agar (15 ml) and spread evenly over the entire surface. […] Each test compound was applied to the disks as a solution (50 mg compound/10 ml acetone). Control disks were treated with neat acetone (20 μl). Test plates with fungal homogenates and disks were incubated at 18-20° C. for 2 days. For each test four replicate plates were used. The diameter of the clear zone surrounding the disk was taken as the indicator of antifungal activity.

Aspergillus niger [3] = assay: Antifungal paper disk test, diameter of clear zone; format: cell-based; settings: for zone of inhibition at 100 µg/disc / zone of inhibition at 25 µg/disc: Aspergillus niger; for zone of inhibition at 100 µg/disc: read-out: Diameter (mm) of clear Zone A. niger
Protocol: as §1, §2

Aspergillus flavus [4] = assay: Antifungal paper disk test, diameter of clear zone; format: cell-based; settings: 0.25 μg/disk; Appl'n Solvent DMSO
B1 leukemic cell line = assay: MTT assay; format: cell-based, human; settings: B1, 48 h, read-out: MTT50
Protocol: (§3) All cell lines were assayed as asynchronously growing cells. Leukemic cell lines, OCI-AML-2, OCI-AML-3 (referred to hereafter as AML-2 and AML-3, respectively), NB-4, KK, B1, G2, and W1 were cultured in alpha-minimal essential medium (α-MEM) (Princess Margaret Hospital Media Services) supplemented with 10% fetal bovine serum (FBS) (Sigma, St. Louis, Mo.). Non-transformed, diploid fibroblast lines WI38 and IMR90, were cultured in α-MEM and MEM F-15, respectively supplemented with 10% FBS. Media for IMR90 cells was also supplemented with 1.5 g/L bicarbonate and 1 mM pyruvate. Breast tumour cell lines, MDA-231, SK-BR-3, MCF-7, ZR-751, and melanoma tumour cell lines, WM9, WM983, WM793, 1232, were grown in α-MEM supplemented with 10% fetal bovine serum. Prostate tumour cell lines, DU145 and PC-3, were grown in RPMI 1640 media supplemented with 10% FBS. All cell lines were cultured in the presence of penicillin/streptomycin. Mononucleated cells were isolated from normal bone marrow using Ficoll hypaque and then T-cell depleted. T-cell depletion was performed by incubating the mononucleated bone marrow cells in α-MEM at a concentration of 2×10^7 cells/mL with 10% absor FBS and 10% (v/v) sheep red blood cells for 4 to 16 h. Absor FBS was prepared beforehand by heating FBS at 56° C. for 1 h, incubating with sheep red blood cells at 0.5% (v/v) for 1 h and then filtering the FBS with a […]. The T-cell depleted, mononucleated cells were recovered using Ficoll hypaque and were maintained in α-MEM supplemented with 20% FBS and 10% 5637 ? nditioned media. 5637 conditioned media ? s previously harvested from confluent 5637 cells after a 3 day incubation. Normal bone marrow from bone marrow transplant donor was collected following informed consent according to institutional guidelines.
(§4) Approximately 20 mg of each compound was dissolved in 5 mL of ACS grade acetone (Sigma) using a 5 mL volumetric flask. Stock solutions of the compounds were stored in the dark at −20° C. Compounds were diluted prior to each experiment.
(§5) Adherent cells were seeded at 67×10^3 cells/mL in a 96 well plate (Falcon, Mississauga, Ontario) the day prior to exposure to compound. Suspension cells were seeded at 27×10^4 cells/mL in a 96 well plate the day of exposure to compound. Mononucleated, T-cell depleted normal bone marrow cells were seeded at 67×10^4 cells/mL in a 96 well plate the day of exposure to compound. Compounds and solvent control were added to cells and assayed in triplicate or sextuplet. Following 48 h of incubation at 37° C. with 5% CO2, 40 μL of a 5 mg/mL solution of 3-[4,5-dimethylthiazol-2-yl]-2,5-diphenyltetrazolium bromide (MTT) substrate (Sigma) in Dulbecco's phosphate-buffered saline (D-PBS) was added. After 4 h of incubation at 37° C. with 5% CO2, the resulting violet formazan precipitate was solubilized by the addition of 80 μL of a 0.01 M HCI, 10% sodium dodecyl sulfate (SDS; Sigma) solution overnight at 37° C. with 5% CO2. The plates were then analyzed using the BioRad Benchmark Microplate Reader (BioRad Laboratories, Hercules, Calif.) at 570 nm to determine the optical density of the samples. MTT data was analyzed using Prism 3.0 (GraphPad Software, Inc., San Diego, Calif.) by the Chou-Talalay method. MTT graphs shown are a representative experiment.
(§6) Adherent cells were seeded at 67×10^3 cells/mL in a 96 well plate (Falcon, Mississauga, Ontario) the day prior to exposure to compound. Suspension cells were seeded at 27×10^4 cells/mL in a 96 well plate the day of exposure to compound. Mononucleated, T-cell depleted normal bone marrow cells were seeded at 67×10^4 cells/mL in a 96 well plate the day of exposure to compound. Compounds and solvent control were added to cells and assayed in triplicate or sextuplet. […]

KK leukemic cell line [5] = assay: MTT assay; format: cell-based, human; settings: KK, 48 h, read-out: MTT50
Protocol: as §3, §4, §5, §6

[6] = tested on: WI38 non-transformed diploid fibroblasts; assay: MTT assay; format: cell-based, human; settings: for IC50: WI38 (normal), 48 h, read-out: MTT50
Protocol: as §3, §4, §5, §6

AML-3 leukemic cell line [7] = assay: MTT assay; format: cell-based, human
Protocol: as §3, §4, §5, §6

NB-4 leukemic cell line = assay: MTT assay; format: cell-based, human; settings: NB-4, 48 h, read-out: MTT50
Protocol: as §3, §4, §5, §6

[8] = tested on: Normal bone marrow (mononucleated, T-cell depleted); assay: MTT assay; format: cell-based; settings: Normal bone marrow, 48 h, read-out: MTT50
Protocol: as §3, §4, §5, §6

[9] = tested on: Aspergillus niger and Aspergillus flavus; assay: Antifungal activity; format: cell-based; settings: in words; for Antifungal activity: dose not given
Protocol: as §1
For the test, 6 agar plugs (5 mm diameter) were cut from a 5-8 day old colony and homogenized in distilled, sterilized water (2 ml). A portion of this suspension (0.5 ml) was transferred aseptically to a Petri plate with Sabouraud Dextrose Agar (15 ml) and spread evenly over the entire surface. Each plate was supplied with four evenly spaced paper disks (7 mm, Whatman Number 1 filter paper) containing the test compound (0, 25, 50 and 100 μg respectively). Each test compound was applied to the disks as a solution (50 mg compound/10 ml acetone). Control disks were treated with neat acetone (20 μl). Test plates with fungal homogenates and disks were incubated at 18-20° C. for 2 days. For each test four replicate plates were used. The diameter of the clear zone surrounding the disk was taken as the indicator of antifungal activity.

KK leukemic cell line [10] = assay: Fixed propidium iodide staining, flow cytometry; format: cell-based, human; settings: dose 129.6 uM (ug/mL), 48 h
Protocol: (§7) Adherent cell lines were plated at 35×10^4 cells/60 cm^2 dish the day before exposure to compound. Suspension cells were seeded at 25×10^4 cells/mL in a 6 well dish (Falcon) the day of exposure to compound. Mononucleated, T-cell depleted normal bone marrow cells were seeded at 50×10^4 cells/mL in a 6 well dish the day of exposure to compound. Cells were exposed to solvent control or approximate MTT50 and MTT30 concentrations of the compound. After 48 h of exposure to the compound, cells were harvested, fixed in 80% ethanol for 1 h on ice and labeled with 50 μg/mL propidium iodide (Sigma). Approximately 10^6 cells were analyzed using a XL-MCL flow cytometer (Coulter Corporation, Miami, Fla.) and a FACScalibar cytometer (Becton Dickinson, San Jose, Calif.). Profiles shown are a representative.
as §7, with “cm2” for “cm^2”, “concentrations.” for “concentrations of the compound.”, “representative. Cell viability counts and Pi staining were performed as previously described (Dimitroulakos, J, Nohynek, D, Backway, K L, Hedley, D W, Yeger, H, Freedman, M H, Minden, M D and Penn, L Z: Increased sensitivity of acute myeloid leukemias to lovastatin-induced apoptosis: A potential therapeutic approach. Blood 93: 1308-18, 1999).” for “representative.”

AML-3 leukemic cell line [11] = assay: Fixed propidium iodide staining, flow cytometry; format: cell-based, human; settings: dose 129.6 uM (ug/mL), 48 h
Protocol: as §7
as §7, with “cm2” for “cm^2”, “concentrations.” for “concentrations of the compound.”, “representative. Cell viability counts and Pi staining were performed as previously described (Dimitroulakos, J, Nohynek, D, Backway, K L, Hedley, D W, Yeger, H, Freedman, M H, Minden, M D and Penn, L Z: Increased sensitivity of acute myeloid leukemias to lovastatin-induced apoptosis: A potential therapeutic approach. Blood 93: 1308-18, 1999).” for “representative.”

G2 leukemic cell line = assay: MTT assay; format: cell-based, human; settings: 48 h, read-out: MTT50
Protocol: as §3, §4, §5, §6

W1 leukemic cell line = assay: MTT assay; format: cell-based, human; settings: 48 h, read-out: MTT50
Protocol: as §3, §4, §5, §6

[12] = 0.25 μg/disk, Appl'n Solvent Acetone
[13] = Homo sapiens, AML3, 48 h, AML-3, read-out: MTT50

CCC(=O)OCSSCOC(=O)CC [(C2H5C(O)OCH2S)2, 2,3-dithiabutane-1,4-dipropionate]
Diameter (mm) of clear Zone A. niger (Aspergillus niger [1]): 8.0 mm
Diameter (mm) of clear Zone A. flavus (Aspergillus flavus [2]; [12]): 6.7 mm
Diameter (mm) of clear Zone A. niger (Aspergillus niger [3]; [12]): 3.6 mm
Diameter (mm) of clear Zone A. flavus (Aspergillus flavus [4]): 6.1 mm

COC(=O)CSSCC(=O)OC [O, dimethyl 3,4-dithiaadipate]
IC50 (B1 leukemic cell line; Homo sapiens): 57.4 µM
IC50 (KK leukemic cell line [5]; Homo sapiens): 96.9 µM
IC50 ([6]; Homo sapiens, WI-38, 48 h): 73.9 µM
IC50 (AML-3 leukemic cell line [7]; AML-3, 48 h, read-out: MTT50): 44.1 µM
IC50 (AML-3 leukemic cell line [7]; [13]): 55.8 µM
IC50 (NB-4 leukemic cell line; Homo sapiens): 62.9 µM
zone of inhibition at 100 µg/disc (Aspergillus flavus [2]; 100 μg/disk, acetone): 0 mm
zone of inhibition at 100 µg/disc (Aspergillus niger [3]; 100 μg/disk, acetone): 0 mm
IC50 ([8]; T-cell): > 100 µM

Methyl methanethiosulfonate [CH3SO2SCH3]
Antifungal activity [9]: effective against only one of the test fungi
Diameter (mm) of clear Zone A. flavus (Aspergillus flavus [2]; 100 μg/disk, acetone): 0 mm
Diameter (mm) of clear Zone A. niger (Aspergillus niger [3]; 100 μg/disk, acetone): 3.3 mm

CSCSCSC [J, 2,4,6-trithiaheptane]
Antifungal activity [9]: do not possess antiproliferative activity on either fungal or mammalian cells
IC50 (KK leukemic cell line [5]; Homo sapiens): > 162 µM
IC50 ([6]; Homo sapiens, WI-38, 48 h): > 162 µM
Viability of non-transformed human WI38 fibroblasts following exposure ([6]; in words): not affected
IC50 (AML-3 leukemic cell line [7]; [13]): > 162 µM
zone of inhibition at 100 µg/disc (Aspergillus flavus [2]; 100 μg/disk, acetone): 0 mm
zone of inhibition at 100 µg/disc (Aspergillus niger [3]; 100 μg/disk, acetone): 0 mm
% pre-G1 (Fixed PI) (KK leukemic cell line [10]): 2.6%
% pre-G1 (Fixed PI) (AML-3 leukemic cell line [11]): 0.2%
IC50 ([8]; T-cell): > 162 µM

CCCCCSSCS(C)(=O)=O [K]
IC50 (B1 leukemic cell line): 6.07 µM
IC50 (KK leukemic cell line [5]): 6.6 µM
IC50 [6]: 19 µM
IC50 (AML-3 leukemic cell line [7]; AML-3, 48 h, read-out: MTT50): 4.6 µM
IC50 (G2 leukemic cell line): 6.61 µM and 5.8 µM
IC50 (NB-4 leukemic cell line): 6.36 µM and 7.8 µM
IC50 [8]: 22 µM

CSSc1ccccc1 [Compound C6H5SSCH3, phenyl methyl disulphide]
Antifungal activity / fungitoxicity ([9]; 100 μg/disk): no observable fungitoxicity
zone of inhibition at 100 µg/disc (Aspergillus flavus [2]; 100 μg/disk, acetone): 0 mm
zone of inhibition at 100 µg/disc (Aspergillus niger [3]; 100 μg/disk, acetone): 0 mm

CCC(=O)OCSSC [CH3CH2C(O)OCH2SSCH3, 2,3-dithiabutyl propionate]
zone of inhibition at 25 µg/disc (Aspergillus flavus [2]; 25 μg/disk, acetone): 7.6 mm
zone of inhibition at 25 µg/disc (Aspergillus niger [3]; 25 μg/disk, acetone): 14.8 mm

CS(=O)(=O)Oc1ccc([N+](=O)[O-])cc1 [p-O2N(C6H4)OSO2CH3, p-nitrophenyl methanesulfonate]
zone of inhibition at 100 µg/disc (Aspergillus flavus [2]; 100 μg/disk, acetone): 0 mm
zone of inhibition at 100 µg/disc (Aspergillus niger [3]; 100 μg/disk, acetone): 0 mm

CS(=O)(=O)c1ccc(SSc2ccc(S(C)(=O)=O)cc2)cc1 [[p-CH3SO2(C6H4)S]2, p-methylsulfonylphenyl disulphide]
zone of inhibition at 25 µg/disc (Aspergillus flavus [2]; 25 μg/disk, acetone): 6.9 mm
zone of inhibition at 25 µg/disc (Aspergillus niger [3]; 25 μg/disk, acetone): 4 mm

CSSC [CH3SSCH3, dimethyl disulphide]
Antifungal activity [9]: no antifungal behaviour
Diameter (mm) of clear Zone A. flavus (Aspergillus flavus [2]; 100 μg/disk, acetone): 0 mm
Diameter (mm) of clear Zone A. niger (Aspergillus niger [3]; 100 μg/disk, acetone): 0 mm

CS(=O)(=O)Sc1ccccc1 [L, Phenyl Methanethiosulfonate]
IC50 (B1 leukemic cell line): 6.34 µM
IC50 (KK leukemic cell line [5]): 6.3 µM
IC50 (AML-3 leukemic cell line [7]; AML-3, 48 h, read-out: MTT50): 7.46 µM
IC50 (G2 leukemic cell line): 3.8 µM
IC50 (W1 leukemic cell line): 7.26 µM
Diameter (mm) of clear Zone A. flavus (Aspergillus flavus [2]; 25 μg/disk, acetone): 3.7 mm
Diameter (mm) of clear Zone A. niger (Aspergillus niger [3]; 25 μg/disk, acetone): 0 mm
IC50 [8]: 44.2 µM

COC(=O)c1ccccc1SSC [o-CH3OC(O)(C6H4)SSCH3, methyl-o(methyldithio)benzoate]
Diameter (mm) of clear Zone A. flavus (Aspergillus flavus [2]; 25 μg/disk, acetone): 4.3 mm
Diameter (mm) of clear Zone A. niger (Aspergillus niger [3]; 25 μg/disk, acetone): 2.8 mm
